Experimental data taken from PMC10112521, “High-throughput AR dimerization assay identifies androgen disrupting chemicals and metabolites” (Frontiers in Toxicology, 2023).
Several values for one entry are separate records, joined by “and”; a condition that tells them apart may be missing. Identical values can stand only once. Like-named read-outs stand apart in the source and are kept apart here.

Columns and labels:
human AR [1] = target: T1, human AR (Homo sapiens, UniProt P10275); assay: cell-based; set-up: species or system AR2 cells (HepG2-AR2); NanoLuc complementation AR homodimerization, antagonist mode, loss of agonist-induced luminescence, AC50 by Hill fit
T1 sequence (P10275 1-920) 1: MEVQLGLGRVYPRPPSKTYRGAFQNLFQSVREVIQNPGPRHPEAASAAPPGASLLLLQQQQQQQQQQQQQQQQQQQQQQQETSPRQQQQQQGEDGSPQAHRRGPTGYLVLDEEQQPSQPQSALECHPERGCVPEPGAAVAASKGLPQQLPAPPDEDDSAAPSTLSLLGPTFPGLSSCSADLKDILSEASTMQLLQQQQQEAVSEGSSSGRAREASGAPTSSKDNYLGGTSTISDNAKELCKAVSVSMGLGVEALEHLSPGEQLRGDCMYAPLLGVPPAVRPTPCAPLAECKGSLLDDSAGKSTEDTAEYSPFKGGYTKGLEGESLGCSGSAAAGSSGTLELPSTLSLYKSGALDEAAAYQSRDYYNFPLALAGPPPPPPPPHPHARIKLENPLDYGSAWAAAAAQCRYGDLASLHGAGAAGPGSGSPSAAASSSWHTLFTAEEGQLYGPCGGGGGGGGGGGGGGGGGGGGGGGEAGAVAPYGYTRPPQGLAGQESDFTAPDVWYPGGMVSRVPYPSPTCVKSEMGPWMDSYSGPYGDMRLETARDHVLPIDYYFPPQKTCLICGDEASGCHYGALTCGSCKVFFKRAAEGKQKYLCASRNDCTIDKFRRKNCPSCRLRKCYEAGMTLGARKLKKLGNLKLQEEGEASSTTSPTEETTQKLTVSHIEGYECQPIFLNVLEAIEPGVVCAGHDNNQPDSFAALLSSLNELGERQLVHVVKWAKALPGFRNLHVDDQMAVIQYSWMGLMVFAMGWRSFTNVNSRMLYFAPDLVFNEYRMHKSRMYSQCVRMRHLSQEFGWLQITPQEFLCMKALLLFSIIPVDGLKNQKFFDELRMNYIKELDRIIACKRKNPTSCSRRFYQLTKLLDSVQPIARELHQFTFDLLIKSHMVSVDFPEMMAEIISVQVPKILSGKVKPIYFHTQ
T1 sequence (P10275 1-920) 2: T1 sequence (P10275 1-920) 1

AR2 cells (HepG2-AR2) [2] = assay: Alamar Blue (resazurin) post hoc cell viability / cytotoxicity assay in AR2 cells
Procedure: (§1) For antagonist mode and cytotoxicity data, well-level normalized response (resp) was calculated as: resp=100 * RLU−bval/pval−bval where pval is the median RLU value of the MEC positive control wells (minimum four wells).

human AR [3] = target: T1, human AR; assay: cell-based; set-up: species or system AR2 cells (HepG2-AR2); NanoLuc complementation AR homodimerization, agonist mode, luminescence gain, AC50 by Hill fit
human AR [4] = target: T1, human AR; assay: AR2 assay, antagonist mode: disruption of R1881 (10 nM)-induced AR homodimerization in HepG2-AR2 cells; type: cell-based
human AR [5] = target: T1, human AR; assay: AR2 assay, agonist mode: ligand-dependent AR homodimerization (NanoBiT luciferase complementation) in stable HepG2-AR2 cells; type: cell-based; conditions: for hill_gw: Hill model gain slope (Hill coefficient); for hill_gw / hill_tp: 0 given where win_model is Constant; for hill_tp: Hill model top (efficacy); for win_model: winning concentration-response model (Constant, Hill, Gain-Loss); for AR2 agonist: activity call, agonist mode;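 on hill tp: Log2 fold change of luminescence over DMSO vehicle wells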;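 on max med: Log2 fold change of luminescence over DMSO vehicle wells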
[6] = test system: human AR (LBD and AF2 domains) and the RID of human SRC2; set-up: method as in U.S. EPA, 2002b; conditions: activity call, agonist mode, 2 h; invitroDBv3.4 ref U.S. EPA, 2002b; cited from earlier work
[7] = test system: full-length human AR and the receptor interacting domain (RID) of SRC1; set-up: method as in U.S. EPA, 2002b; conditions: cited from earlier work
AR2 cells (HepG2-AR2) [8] = test system: AR2 cells (HepG2-AR2)
Procedure: as §1

AR = test system: AR; set-up: method as in Kleinstreuer et al., 2017; conditions: cited from earlier work
[9] = hill_ga, spid=Bgal, antagonist mode, 10 nM agonist stimulus, 18 h, no CYP expressed
[10] = hill_ga, spid=No_RNA, antagonist mode, 10 nM agonist stimulus, 18 h, no CYP expressed
[11] = spid Viability, sheet antagonist_fits
[12] = spid Viability, sheet antagonist_fits, 0 where win_model is Constant
[13] = hill_ga, spid=Bgal, agonist mode, 18 h, no CYP expressed
[14] = hill_ga, spid=No_RNA, agonist mode, 18 h, no CYP expressed
[15] = spid AR_antagonist, sheet antagonist_fits
[16] = spid AR_antagonist, sheet antagonist_fits, 0 where win_model is Constant
[17] = sheet agonist_fits, maximum median response
[18] = AR agonist reference class ref Kleinstreuer et al., 2017
[19] = spid=Bgal, antagonist mode, 10 nM agonist stimulus, 18 h, no CYP expressed, read-out: hill_ga (converted)
[20] = activity call, 8 h, single protocol detects agonists and antagonists, invitroDBv3.4 ref U.S. EPA, 2002b
[21] = activity call, 16 h, single protocol detects agonists and antagonists, invitroDBv3.4 ref U.S. EPA, 2002b

Compound | AC50 (human AR [1]; [9]) [µM] | AC50 (human AR [1]; [10]) [µM] | max_med (maximum median response) (AR2 cells (HepG2-AR2) [2]; [11]) | hill_tp (Hill model top) (AR2 cells (HepG2-AR2) [2]; [12]) | AC50 (human AR [3]; [13]) [µM] | max_med (maximum median response) (human AR [4]; [15]) | win_model (winning concentration-response model) (human AR [4]; [15]) | hill_gw (Hill model slope) (human AR [4]; [16]) | hill_tp (Hill model top) (human AR [4]; [16]) | hill_gw (human AR [5]; sheet agonist_fits) | hill_tp (human AR [5]; sheet agonist_fits) | max_med (human AR [5]; [17]) | win_model (human AR [5]; sheet agonist_fits) | UPitt agonist [6] | further results
O=C(c1ccc(O)cc1O)c1ccc(O)cc1O [2,2',4,4'-Tetrahydroxybenzophenone] | 9.95 | 10.6 | 18.7262 | 17.7235 | 9.83 | 92.9832 | Hill | 1.5932 | 93.4271 | 3.418 | 2.275 | 2.26 | Gain-Loss |  | AC50 (human AR [3]; [14]): 9.94 µM
C[C@]12CCC(=O)C[C@@H]1CC[C@@H]1[C@@H]2CC[C@]2(C)[C@@H](O)CC[C@@H]12 [5alpha-Dihydrotestosterone] |  |  |  |  |  |  |  |  |  |  |  |  |  | 0 | OT 8 hr [7]: 1; OT 16 hr [7]: 1; hill_tp (Hill model top) (AR2 cells (HepG2-AR2) [2]): 25.0955; max_med (maximum median response) (AR2 cells (HepG2-AR2) [2]): 25.6282; hill_ga (Hill model log AC50) (AR2 cells (HepG2-AR2) [8]): 1.263; Agonist reference (AR): Moderate
C[C@]12CC[C@@H]3c4ccc(O)cc4CC[C@H]3[C@@H]1CC[C@H]2O [17alpha-Estradiol] |  |  | 9.057 | 0 |  |  |  |  |  |  |  |  |  | 1 | OT 8 hr [7]: 1; OT 16 hr [7]: 1; Agonist reference (AR; [18]): Inactive
CCCCOC(=O)c1ccc(O)cc1 [Butylparaben] | 73.1 | 67.8 | 19.2784 | 11.4715 | 10.4 | 51.2671 | Hill | 8 | 52.9514 | 8 | 0.09975 | 0.1079 | Gain-Loss |  | AC50 (human AR [3]; [14]): 15.3 µM
CCOP(=S)(OCC)Oc1nc(Cl)c(Cl)cc1Cl [Chlorpyrifos] |  |  | 11.582 | 0 |  | 43.366 | Hill | 1.601 | 66.6083 |  |  | -0.04623 |  |  | AC50 (human AR [1]; hill_ga): 32.9 µM and 58.7 µM; AC50 (human AR [3]; hill_ga): > 99.9 µM
C[C@]12CC[C@@H]3c4ccc(O)cc4CC[C@H]3[C@@H]1CCC2=O [Estrone] |  |  | 20.7469 | 20.0823 |  | 84.5958 | Hill | 1.278 | 83.5344 | 0.4978 | 4.258 | 3.757 | Hill |  | AC50 (human AR [1]; [19]): 0.556 µM; AC50 (human AR [1]; spid=No_RNA, antagonist mode, 10 nM agonist stimulus, 18 h, no CYP expressed, read-out: hill_ga (converted)): 0.707 µM; AC50 (human AR [3]; spid=Bgal, agonist mode, 18 h, no CYP expressed, read-out: hill_ga (converted)): 4.32 µM; AC50 (human AR [3]; spid=No_RNA, agonist mode, 18 h, no CYP expressed, read-out: hill_ga (converted)): 2.63 µM
CCCSP(=O)(OCC)SCCC [Ethoprop] |  |  | 22.3553 | 18.1513 | > 99.9 | 30.1172 | Hill | 1.091 | 36.6932 |  |  |  |  |  | max_med (human AR [5]): -0.01755
C[C@]12CC[C@@H]3c4ccc(O)cc4C[C@@H](CCCCCCCCC[S+]([O-])CCCC(F)(F)C(F)(F)F)[C@H]3[C@@H]1CC[C@@H]2O (some centres unmarked) [Fulvestrant] |  |  | 0.2489 | 0 |  | 30.2853 | Hill | 0.7802 | 36.6036 |  | 0 | 0.04086 | Constant | 0 | OT 8 hr [7, 20]: 0; OT 16 hr [7, 21]: 0; Agonist reference (AR; [18]): Inactive; AR2 agonist (human AR [5]; 18 h): 0
N#Cc1ccc(C(c2ccc(C#N)cc2)n2cncn2)cc1 [Letrozole] |  | 54.9 | 11.0349 | 0 | > 99.9 | 39.7548 | Hill | 1.809 | 49.9358 | 3.273 | 5.82 | 6.074 | Gain-Loss |  | 
O=C1C[C@@H](c2ccc(O)cc2)Oc2cc(O)cc(O)c21 [Naringenin] | 49.8 | 57.7 | 0.3009 | 0 | > 99.9 |  | Hill | 8 |  | 8 | 0.1206 | 0.1409 | Gain-Loss |  | hill_tp (Hill model top) (human AR [4]): 38.8754; max_med (maximum median response) (human AR [4]): 37.0321
O=[N+]([O-])c1c(Cl)c(Cl)c(Cl)c(Cl)c1Cl [Pentachloronitrobenzene] |  |  | 37.6424 | 16.6244 | > 99.9 | 40.8543 | Hill | 8 | 49.0252 | 5.807 | 0.296 | 0.2467 | Gain-Loss |  | 
CC(C)=CC1C(C(=O)OCN2C(=O)C3=C(CCCC3)C2=O)C1(C)C (centres unmarked) [Tetramethrin] |  |  | 11.4832 | 20.7059 |  | 7.623 | Hill | 3.974 | 4.695 | 4.525 | 0.4941 | 0.4102 | Hill | 0 | AC50 (human AR [1]; [19]): 43.1 µM; OT 8 hr [7, 20]: 1; OT 16 hr [7, 21]: 1; Agonist reference (AR; [18]): Inactive; activity call in agonist mode (human AR [5]; 128-chemical evaluation, 18 h, active = maximal median response >5*bmad): inactive; AR2 agonist (human AR [5]; 18 h): 0
CCCN(CCC)c1c([N+](=O)[O-])cc(C(F)(F)F)cc1[N+](=O)[O-] [Trifluralin] | 52.2 | 47.5 | 33.7321 | 18.5971 |  |  | Hill | 1.383 |  | 0.3 | 0.2593 | 0.1998 | Gain-Loss |  | AC50 (human AR [3]; [14]): > 99.9 µM; hill_tp (Hill model top) (human AR [4]): 55.7657; max_med (maximum median response) (human AR [4]): 39.0604
